Test results from patent US7351747B2, “Skin treatment for relief of itch” (priority 2003, dated 2008).

System: skin itch
Experiment: Topical application of chlorhydrate composition to individuals with skin itch
Format: in vivo, human
Method: Three individuals, each complaining of skin itch of undetermined origin, were treated as follows. A composition was prepared at a concentration of aluminum chlorhydrate of about 10 to about 20 weight percent in water and further including a small quantity of a quaternary ammonium compound as a preservative.
An adult individual has applied 30% wt. of aluminum chlorhydrate in a topical cream to an area of the forearm experiencing itch.
An adult complains of itch on their legs.
An adult complaining of itch on their forearms and legs applies an ointment composition including 25% wt. of aluminum zirconium chlorhydrate to the affected areas.
An aqueous composition comprising aluminum chlorhydrate at a concentration of about 20 weight percent is applied to a synthetic fabric wipe and sealed in a tear-open pouch. Subsequently, an adult experiencing itch on their forearms tears open the pouch and wipes the area of the skin with the moist wipe; the wipe and pouch are discarded after use.

[1] = adult female, legs, 30% wt. in a lotion
[2] = adult male, forearms, aqueous composition about 20 weight percent on synthetic fabric wipe
[3] = adult male, forearms and legs, ointment composition including 25% wt.

Substance | duration of relief of itch [1] | time to relief of itch [1] | relief of skin itch (adult individual, forearm, 30% wt. in a topical cream, no other active agent) | duration of relief from itching [2] | time to relief from itching [2] | time to relief from itching (three adults (one male, two female), skin itch of undetermined origin, about 10 to about 20 weight percent in water with quaternary ammonium preservative, pump spray) | duration of relief from itching (three adults, skin itch of undetermined origin, about 10 to about 20 weight percent in water, pump spray) | adverse side effects (three adults, about 10 to about 20 weight percent in water, pump spray to itching skin) | duration of relief of itch [3] | time to relief of itch [3]
aluminum chlorhydrate | about 24 hours | within a few minutes | relieves the skin itch | about a day | within minutes | within a few minutes | about one day | No adverse side effects were reported | – | –
aluminum zirconium chlorhydrate | – | – | – | – | – | – | – | – | about 24 hours | within minutes
